Assay results taken from patent US20200339691A1, “PROTEINACEOUS MOLECULES AND USES THEREFOR” (priority 2018, published 2020).
Where a SMILES comes first, the peptide text is derived from it. The star is where a group is joined. Myristoyl = CCCCCCCCCCCCCC(=O)*

Key:
MDA-MB-231 cells = type: cell-based, human; details: 50 μM peptide, 48 hours, n = 1
Text: (§1) Non-adherent cells were removed during the washing steps.

[1] = system: CD44^hiCD24^lo CSCs in MDA-MB-231 cells; assay: FACS analysis of CD44^hiCD24^lo cancer stem cells in MDA-MB-231 cells treated with P1 analogues; type: cell-based, human; details: 50 μM peptide, 48 hours; for CD44^hiCD24^lo CSCs (%) / COI, Live Single CD44^hiCD24^lo CSCs (Cell Count): n = 1; for Average Inhibition of CSCs (%) / CD44^hiCD24^lo CSCs (%) Repeat 1 / CD44^hiCD24^lo CSCs (%) Repeat 2 / CD44^hiCD24^lo CSCs (%) Repeat 3: n = 3
Protocol: Analogues of P1 (Table 6) were designed and synthesized in accordance with the procedure of Example 5. The ability of these analogues to inhibit cancer stem cells was determined using FACS analysis on MDA-MB-231 cells, which constitutively contain approximately 90% CD44^hiCD24^lo cancer stem cells, treated with the peptides.
as §1
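Wherever COI, Live Single Cells (Cell Count) is given: live means Hoechst-negative events among single cells.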

CCCCCCCCCCCCCC(=O)N[C@@H](CC(C)C)C(=O)N[C@H](C(=O)N[C@@H](Cc1ccccc1)C(=O)N[C@H](C(=O)N[C@@H](Cc1ccccc1)C(=O)N[C@@H](CCCNC(=N)N)C(=O)N[C@@H](CC(C)C)C(=O)N[C@@H](CCC(=O)O)C(=O)N[C@@H](CCCCN)C(=O)NCC(=O)N[C@@H](CCCNC(=N)N)C(=O)N[C@@H](CCSC)C(=O)N[C@@H](CCSC)C(=O)N[C@@H](CC(=O)O)C(=O)N[C@H](C(=O)N[C@@H](CCCCN)C(=O)N[C@@H](CCCCN)C(N)=O)C(C)C)[C@@H](C)CC)[C@@H](C)O [Peptide 2853823, Myristoyl-LTFIFRLEKGRMMDVKK-NH2] (Myristoyl-LTFIFRLEKGRMMDVKK-NH2)
COI (Cell Count) (MDA-MB-231 cells): 672 | COI, Live Single Cells (Cell Count) (MDA-MB-231 cells): 608 | COI, Single (Cell Count) (MDA-MB-231 cells): 626 | Total Cell Count (MDA-MB-231 cells): 1209 | Inhibition of CSCs (%) Repeat 1 [1]: 80.72% | Inhibition of CSCs (%) Repeat 2 [1]: 81.08% | Inhibition of CSCs (%) Repeat 3 [1]: 82.74% | CD44^hiCD24^lo CSCs (%) [1]: 3.62% | COI, Live Single CD44^hiCD24^lo CSCs (Cell Count) [1]: 22 | Average Inhibition of CSCs (%) [1]: 81.52% | CD44^hiCD24^lo CSCs (%) Repeat 1 [1]: 17.28% | CD44^hiCD24^lo CSCs (%) Repeat 2 [1]: 16.97% | CD44^hiCD24^lo CSCs (%) Repeat 3 [1]: 15.49%

CCCCCCCCCCCCCC(=O)N[C@H](C(=O)N[C@@H](Cc1ccccc1)C(=O)N[C@H](C(=O)N[C@@H](Cc1ccccc1)C(=O)N[C@@H](CCCNC(=N)N)C(=O)N[C@@H](CC(C)C)C(=O)N[C@@H](C)C(=O)N[C@@H](CCCCN)C(=O)NCC(=O)N[C@@H](CCCNC(=N)N)C(=O)N[C@@H](CCSC)C(=O)N[C@@H](CCSC)C(=O)N[C@@H](CC(=O)O)C(=O)N[C@H](C(=O)N[C@@H](CCCCN)C(=O)N[C@@H](CCCCN)C(N)=O)C(C)C)[C@@H](C)CC)[C@@H](C)O [Peptide 2815308, Myristoyl-TFIFRLAKGRMMDVKK-NH2] (Myristoyl-TFIFRLAKGRMMDVKK-NH2)
COI (Cell Count) (MDA-MB-231 cells): 340 | COI, Live Single Cells (Cell Count) (MDA-MB-231 cells): 163 | COI, Single (Cell Count) (MDA-MB-231 cells): 301 | Total Cell Count (MDA-MB-231 cells): 9921 | Inhibition of CSCs (%) Repeat 1 [1]: 51.70% | Inhibition of CSCs (%) Repeat 2 [1]: 45.08% | Inhibition of CSCs (%) Repeat 3 [1]: 50.47% | CD44^hiCD24^lo CSCs (%) [1]: 54.60% | COI, Live Single CD44^hiCD24^lo CSCs (Cell Count) [1]: 89 | Average Inhibition of CSCs (%) [1]: 49.08% | CD44^hiCD24^lo CSCs (%) Repeat 1 [1]: 43.29% | CD44^hiCD24^lo CSCs (%) Repeat 2 [1]: 49.27% | CD44^hiCD24^lo CSCs (%) Repeat 3 [1]: 44.44%

CCCCCCCCCCCCCC(=O)N[C@@H](CC(C)C)C(=O)N[C@H](C(=O)N[C@@H](Cc1ccccc1)C(=O)N[C@H](C(=O)N[C@@H](Cc1ccc(O)cc1)C(=O)N[C@@H](CCCNC(=N)N)C(=O)N[C@@H](CC(C)C)C(=O)N[C@@H](CCCNC(=N)N)C(=O)N[C@@H](CCCCN)C(=O)NCC(=O)N[C@@H](CCCNC(=N)N)C(=O)N[C@@H](CCSC)C(=O)N[C@@H](CCSC)C(=O)N[C@@H](CC(=O)O)C(=O)N[C@H](C(=O)N[C@@H](CCCCN)C(=O)N[C@@H](CCCCN)C(N)=O)C(C)C)[C@@H](C)CC)[C@@H](C)O [Peptide 2853814, Myristoyl-LTFIYRLRKGRMMDVKK-NH2] (Myristoyl-LTFIYRLRKGRMMDVKK-NH2)
COI (Cell Count) (MDA-MB-231 cells): 437 | COI, Live Single Cells (Cell Count) (MDA-MB-231 cells): 368 | COI, Single (Cell Count) (MDA-MB-231 cells): 387 | Total Cell Count (MDA-MB-231 cells): 999 | Inhibition of CSCs (%) Repeat 1 [1]: 73.80% | Inhibition of CSCs (%) Repeat 2 [1]: 76.59% | Inhibition of CSCs (%) Repeat 3 [1]: 77.85% | CD44^hiCD24^lo CSCs (%) [1]: 13.86% | COI, Live Single CD44^hiCD24^lo CSCs (Cell Count) [1]: 51 | Average Inhibition of CSCs (%) [1]: 76.08% | CD44^hiCD24^lo CSCs (%) Repeat 1 [1]: 23.48% | CD44^hiCD24^lo CSCs (%) Repeat 2 [1]: 21.00% | CD44^hiCD24^lo CSCs (%) Repeat 3 [1]: 19.88%

CCCCCCCCCCCCCC(=O)N[C@@H](CC(C)C)C(=O)N[C@H](C(=O)N[C@@H](Cc1ccccc1)C(=O)N[C@H](C(=O)N[C@@H](Cc1ccccc1)C(=O)N[C@@H](CCCNC(=N)N)C(=O)N[C@@H](Cc1ccccc1)C(=O)N[C@@H](CCCNC(=N)N)C(=O)N[C@@H](CCCCN)C(=O)NCC(=O)N[C@@H](CCCNC(=N)N)C(=O)N[C@@H](CCSC)C(=O)N[C@@H](CCSC)C(=O)N[C@@H](CC(=O)O)C(=O)N[C@H](C(=O)N[C@@H](CCCCN)C(=O)N[C@@H](CCCCN)C(N)=O)C(C)C)[C@@H](C)CC)[C@@H](C)O [Peptide 2853819, Myristoyl-LTFIFRFRKGRMMDVKK-NH2] (Myristoyl-LTFIFRFRKGRMMDVKK-NH2)
COI (Cell Count) (MDA-MB-231 cells): 563 | COI, Live Single Cells (Cell Count) (MDA-MB-231 cells): 191 | COI, Single (Cell Count) (MDA-MB-231 cells): 372 | Total Cell Count (MDA-MB-231 cells): 4572 | Inhibition of CSCs (%) Repeat 1 [1]: 98.02% | Inhibition of CSCs (%) Repeat 2 [1]: 89.55% | Inhibition of CSCs (%) Repeat 3 [1]: 93.19% | CD44^hiCD24^lo CSCs (%) [1]: 2.62% | COI, Live Single CD44^hiCD24^lo CSCs (Cell Count) [1]: 5 | Average Inhibition of CSCs (%) [1]: 93.59% | CD44^hiCD24^lo CSCs (%) Repeat 1 [1]: 1.78% | CD44^hiCD24^lo CSCs (%) Repeat 2 [1]: 9.38% | CD44^hiCD24^lo CSCs (%) Repeat 3 [1]: 6.11%

CCCCCCCCCCCCCC(=O)N[C@@H](CC(C)C)C(=O)N[C@H](C(=O)N[C@@H](Cc1ccccc1)C(=O)N[C@H](C(=O)N[C@@H](Cc1ccccc1)C(=O)N[C@@H](CCCNC(=N)N)C(=O)N[C@@H](CC(C)C)C(=O)N[C@@H](CCCCN)C(=O)N[C@@H](CCCCN)C(=O)NCC(=O)N[C@@H](CCCNC(=N)N)C(=O)N[C@@H](CCSC)C(=O)N[C@@H](CCSC)C(=O)N[C@@H](CC(=O)O)C(=O)N[C@H](C(=O)N[C@@H](CCCCN)C(=O)N[C@@H](CCCCN)C(N)=O)C(C)C)[C@@H](C)CC)[C@@H](C)O [Peptide 2853824, Myristoyl-LTFIFRLKKGRMMDVKK-NH2] (Myristoyl-LTFIFRLKKGRMMDVKK-NH2)
COI (Cell Count) (MDA-MB-231 cells): 4232 | COI, Live Single Cells (Cell Count) (MDA-MB-231 cells): 3743 | COI, Single (Cell Count) (MDA-MB-231 cells): 3768 | Total Cell Count (MDA-MB-231 cells): 5455 | Inhibition of CSCs (%) Repeat 1 [1]: 77.86% | Inhibition of CSCs (%) Repeat 2 [1]: 79.50% | Inhibition of CSCs (%) Repeat 3 [1]: 76.91% | CD44^hiCD24^lo CSCs (%) [1]: 16.54% | COI, Live Single CD44^hiCD24^lo CSCs (Cell Count) [1]: 619 | Average Inhibition of CSCs (%) [1]: 78.09% | CD44^hiCD24^lo CSCs (%) Repeat 1 [1]: 19.85% | CD44^hiCD24^lo CSCs (%) Repeat 2 [1]: 18.39% | CD44^hiCD24^lo CSCs (%) Repeat 3 [1]: 20.72%

CCCCCCCCCCCCCC(=O)N[C@@H](CC(C)C)C(=O)N[C@H](C(=O)N[C@@H](Cc1ccccc1)C(=O)N[C@H](C(=O)N[C@@H](Cc1ccccc1)C(=O)N[C@@H](CCCNC(=N)N)C(=O)N[C@@H](CC(C)C)C(=O)N[C@@H](CCCNC(=N)N)C(=O)N[C@@H](CCCCN)C(=O)NCC(=O)N[C@@H](CCCNC(=N)N)C(=O)N[C@@H](CCSC)C(=O)N[C@@H](CCSC)C(=O)N[C@@H](CC(=O)O)C(=O)N[C@H](C(=O)N[C@@H](Cc1ccc(O)cc1)C(=O)N[C@@H](CCCCN)C(N)=O)C(C)C)[C@@H](C)CC)[C@@H](C)O [Peptide 2853843, Myristoyl-LTFIFRLRKGRMMDVYK-NH2] (Myristoyl-LTFIFRLRKGRMMDVYK-NH2)
COI (Cell Count) (MDA-MB-231 cells): 402 | COI, Live Single Cells (Cell Count) (MDA-MB-231 cells): 80 | COI, Single (Cell Count) (MDA-MB-231 cells): 298 | Total Cell Count (MDA-MB-231 cells): 9152 | Inhibition of CSCs (%) Repeat 1 [1]: 87.60% | Inhibition of CSCs (%) Repeat 2 [1]: 82.06% | Inhibition of CSCs (%) Repeat 3 [1]: 90.31% | CD44^hiCD24^lo CSCs (%) [1]: 7.50% | COI, Live Single CD44^hiCD24^lo CSCs (Cell Count) [1]: 6 | Average Inhibition of CSCs (%) [1]: 86.66% | CD44^hiCD24^lo CSCs (%) Repeat 1 [1]: 11.11% | CD44^hiCD24^lo CSCs (%) Repeat 2 [1]: 16.09% | CD44^hiCD24^lo CSCs (%) Repeat 3 [1]: 8.70%

CCCCCCCCCCCCCC(=O)N[C@@H](CC(C)C)C(=O)N[C@H](C(=O)N[C@@H](Cc1ccccc1)C(=O)N[C@H](C(=O)N[C@@H](Cc1ccccc1)C(=O)N[C@@H](CCCNC(=N)N)C(=O)N[C@@H](CC(C)C)C(=O)N[C@@H](CCCNC(=N)N)C(=O)N[C@@H](CCCCN)C(=O)N[C@@H](CC(=O)O)C(=O)N[C@@H](CCCNC(=N)N)C(=O)N[C@@H](CCSC)C(=O)N[C@@H](CCSC)C(=O)N[C@@H](CC(=O)O)C(=O)N[C@H](C(=O)N[C@@H](CCCCN)C(=O)N[C@@H](CCCCN)C(N)=O)C(C)C)[C@@H](C)CC)[C@@H](C)O [Peptide 2853827, Myristoyl-LTFIFRLRKDRMMDVKK-NH2] (Myristoyl-LTFIFRLRKDRMMDVKK-NH2)
COI (Cell Count) (MDA-MB-231 cells): 170 | COI, Live Single Cells (Cell Count) (MDA-MB-231 cells): 61 | COI, Single (Cell Count) (MDA-MB-231 cells): 110 | Total Cell Count (MDA-MB-231 cells): 4681 | Inhibition of CSCs (%) Repeat 1 [1]: 95.44% | Inhibition of CSCs (%) Repeat 2 [1]: 91.08% | Inhibition of CSCs (%) Repeat 3 [1]: 89.47% | CD44^hiCD24^lo CSCs (%) [1]: 1.64% | COI, Live Single CD44^hiCD24^lo CSCs (Cell Count) [1]: 1 | Average Inhibition of CSCs (%) [1]: 92.00% | CD44^hiCD24^lo CSCs (%) Repeat 1 [1]: 4.09% | CD44^hiCD24^lo CSCs (%) Repeat 2 [1]: 8.00% | CD44^hiCD24^lo CSCs (%) Repeat 3 [1]: 9.45%
